Test results reported in US7141661B2, “Non-steroidal anti-inflammatory drug activated gene with anti-tumorigenic properties” (The United States of America as represented by the …, priority 2000, dated 2006).

Columns and labels:
Type in all cases: cell-based, human
[1] = system: HCT-116 cells; test: Apoptosis and cell cycle by PI staining / FACS in HCT-116 cells; details: for Apoptosis (PI Staining), relative apoptosis ratio over vehicle: HCT-116, 48 hr in presence of serum, maximally effective concentration, FACS
Protocol: To determine whether NAG-1 gene expression is associated with NSAID-induced apoptosis or altered cell cycle kinetics, flow cytometric analysis of the distribution of cells at various stages of the cell cycle was performed. Apoptosis and cell cycle kinetics of INDO-treated HCT-116 cells were measured at different time points. HCT-116 cells were treated with INDO, stained with PI, and analyzed by flow cytometry. Seven thousand five hundred cells were examined by flow cytometry by gating on an area versus width dot plot to exclude cell debris and cell aggregates. Apoptosis is represented by the fold increase in sub-G1 population over 0 hr treatment.
The DNA content for NSAIDs, PPARγ ligand, and vehicle treated HCT-116 cells was determined by FACS. Cells were plated at a density of 4×10^5 cells/well in 2 ml of medium in 6 well plates, incubated for 16 h, and then treated with NSAIDs or TGZ in the presence of serum. After treatment, the cells were harvested, washed with PBS, fixed by the slow addition of cold 70% ethanol to a total of 1 ml, and stored overnight at 4° C. The fixed cells were pelleted, washed once with PBS, and stained in 1 ml of 20 μg/ml of propidium iodide (PI), 1 mg/ml RNase in PBS for 20 min. Seven thousand five hundred cells were examined by flow cytometry using Becton Dickinson FACSort equipped with CellQuest software, by gating on an area versus width dot plot to exclude cell debris and cell aggregates. Each cell cycle distribution was analyzed by the McCycle program using one cell cycle parameter. Apoptosis was measured based on the level of sub-diploid DNA contained in cells following treatment with NSAIDs or TGZ using CellQuest software.
Northern analysis was performed using NAG-1 and β-actin as probes. The data represent relative expression of NAG-1 mRNA over the control (1.0). Each NSAID was tested at 3 different concentrations and maximally effective concentration used for apoptosis determination. Apoptosis ratio by PI staining was measured by FACS. […] The data represent relative apoptosis ratio over vehicle treatment by PI staining methods. TACS™ Annexin V-FITC kit was also used to confirm apoptosis.

[2] = system: NAG-1; test: Northern blot analysis of NAG-1 mRNA expression in HCT-116 cells; details: for NAG-1 Induction (mRNA) Fold: HCT-116, 24 hr in absence of serum, relative NAG-1 mRNA over vehicle control (1.0), tested over the concentration range listed; for NAG-1 expression induction: HCT-116, at any concentration tested
Protocol: Upon reaching 60–80% confluence in 10 cm plates, the cells were treated at indicated concentrations and times with either different NSAIDs or PPARγ ligands in the absence of serum. Total RNAs were isolated using TRIzol reagent (Life Technologies) according to the manufacturer's protocol. For Northern blot analysis, […] of total RNA was denatured at 55° C. for 15 min and separated in a 1.2% agarose gel containing 2.2 M formaldehyde, and transferred to Hybond-N membrane ([…]). After fixing the membrane by UV, blots were prehybridized in hybridization solution (Rapid-hyb buffer, […]) for 1 hr at 65° C. followed by hybridization with cDNA labeled with [α-^32P]dCTP by random primer extension (DECAprimeII kit, Ambion). The probes used were either full-length NAG-1 fragment or PTGFB clone (generously provided by Dr. Bento-Soar of the University of Iowa). After 4 hr incubation at 65° C., the blots were washed once with 2×SSC/0.1% SDS at RT and twice with 0.1×SSC/0.1% SDS at 65° C. Messenger RNA abundance Was estimated by intensities of the hybridization bands of autoradiographs using Scion Image (Scion). Equivalent loading of RNA samples was confirmed by hybridizing the same blot with a ^32P-labeled b-actin probe which recognizes RNA of approximately 2 kb.
To determine whether other NSAIDs increased apoptosis and NAG-1 expression, tests were conducted to determine whether variants of NSAIDs induced NAG-1 gene expression and NSAID-induced apoptosis. Aspirin, ibuprofen, indomethacin, and sulindac sulfide were selected since they are known COX inhibitors. […] HCT-116 cells were treated with different NSAIDs (vehicle, 0.2% DMSO; aspirin, 10 mM; ibuprofen, 1 mM; sodium salicylate, 5 mM; sulindac sulfide, 50 μM; sulindac, 40 μM; acetaminophen, 100 μM) for 24 hr in the absence of serum. Northern analysis was performed using NAG-1 and β-actin as probes. Total RNAs were isolated from NSAID-treated HCT-116 cells after 24 hr treatment and Northern blot was performed using NAG-1 cDNA as a probe (data not shown). […] Each of the doses were as follows: aspirin (1, 5, 10 mM); ibuprofen (100, 500, 1000 μM); salicylate (1, 2.5, 5 mM); sulindac sulfide (1, 10, 50 μM); sulindac (10, 20, 40 μM); acetaminophen (10, 50, 100 μM). After 48 hr treatment with NSAIDs in the presence of serum, cells were harvested and assayed as described in FIG. 1C. Apoptosis detected by PI staining was measured by FACS, as known in the art (FIG. 2A; HCT-116 cells were treated with different NSAIDs (vehicle, 0.2% DMSO; Aspirin, 10 mM; Ibuprofen, 1 mM; Sodium Salicylate, 5 mM; Sulindac Sulfide, 50 μM; Sulindac, 40 μM; Acetaminophen, 100 μM) for 24 hr in the absence of serum. Northern analysis was performed using NAG-1 and β-actin as probes. The open bars represent the relative expression of NAG-1 mRNA over the control (vehicle). The hatched bars represent the relative apoptosis ratio over vehicle treatment by PI staining methods. N=3±S.D.).
In the Table below, HCT-116 cells were treated with different NSAIDs (vehicle, 0.2% DMSO) for 24 hr in the absence of serum. Northern analysis was performed using NAG-1 and β-actin as probes. The data represent relative expression of NAG-1 mRNA over the control (1.0). Each NSAID was tested at 3 different concentrations and maximally effective concentration used for apoptosis determination. Apoptosis ratio by PI staining was measured by FACS. After 48 hr treatment with NSAIDs in the presence of serum, cells were harvested and assayed. The data represent relative apoptosis ratio over vehicle treatment by PI staining methods. TACS™ Annexin V-FITC kit was also used to confirm apoptosis.

[3] = system: NAG-1; test: Western blot analysis of secreted NAG-1 protein from HCT-116 cells; details: HCT-116, 5 μM TGZ
Protocol: The level of secreted NAG-1 was evaluated using Western blot analysis with anti-human-NAG-1 antibody (generously provided by Dr. Paralkar of Pfizer). HCT-116 cells were grown to 60–80% confluency in 10 cm plates followed by 48 hr treatment in the absence of serum with either NSAIDs or TGZ. The media were harvested and concentrated approximately 15-fold using Centriprep 10 concentrators (Amicon). Proteins (30 μg) were separated by 15% SDS-PAGE and transferred for 1 hr onto nitrocellulose membrane (Schleicher & Schuell). The blots were blocked for 1 hr with 5% skim milk in TBS/Tween 0.05%, and probed with anti-NAG-1 antibody (1 μg/ml in TBS-0.2%-Tween20) at […] overnight. After washing, the blots were treated with horseradish peroxidase-conjugated secondary antibody for 1 hr and washed several times. The signal was detected by enhanced chemiluminescence system (AMERSHAM) and autoradiography.
HCT-116 cells were treated with 100 μM INDO in the absence of serum for various times. In FIG. 1B, left panel. 10 μg of total RNA was loaded in each lane. Northern blotting was performed using the NAG-1 probe and re-probed with β-actin probe. The hybridization signals were quantitated using Scion Image software (Scion). Levels of the 1.3 kb NAG-1 transcript were normalized to the levels of β-actin transcripts and represented relative to 0 hr treatment. […] The signal was detected by ECL reagent (AMERSHAM).

[4] = system: NAG-1 promoter; test: NAG-1 promoter (pNAG2021) luciferase reporter assay in transiently transfected HCT-116 cells; details: pNAG2021 in HCT-116, 24 hr; TGZ 10 μM, sulindac 40 μM, acetaminophen 100 μM, other NSAIDs; versus vehicle
[5] = system: NAG-1; test: Northern blot NAG-1 induction in U937 leukemia cells; details: 24 hr
Protocol: (§1) NSAID-induced apoptosis is not restricted to colorectal cells, as NSAIDs can induce apoptosis in breast, lung, leukemia, and prostate cell lines. To test for the induction of NAG-1 by NSAIDs in different cell lines, A549 lung epithelial cells, MCF-7 mammary cells, PC-3 prostate cancer cells, and U937 leukemia cell lines were treated with several concentrations of INDO and aspirin. Then, as described above, Northern blot analysis was performed. […] Quiescent cells were grown for 24 hr in the presence of indicated NSAIDs. Total RNAs were isolated and subjected to Northern analysis using NAG-1 and β-actin as probes. The blots contained 10 μg of total RNA from INDO- or Aspirin (Asp)-treated cells with indicated doses. “V” indicates total RNAs from vehicle (0.2% DMSO) treated cells. The results shown are representative of those obtained in two experiments.

[6] = system: NAG-1; test: Northern blot NAG-1 induction in PC-3 prostate cells; details: PC-3 cells, 10 mM, 24 hr
Protocol: as §1

[7] = system: NAG-1; test: Northern blot NAG-1 induction in A549 lung carcinoma cells; details: 10 mM, 24 hr
Protocol: as §1

[8] = system: NAG-1; test: Northern blot NAG-1 induction in MCF-7 breast carcinoma cells; details: MCF-7 cells, 10 mM, 24 hr
Protocol: as §1

Row | SMILES | Apoptosis (PI Staining), relative apoptosis ratio over vehicle [1] | NAG-1 Induction (mRNA) Fold [2] [Fold] | further results
1 | CC1(C)OC(=O)C(c2cccc(F)c2)=C1c1ccc(S(C)(=O)=O)cc1 [DFU] | 0.54 ± 0.091 | 1.0 | 
2 | Cc1ccc(-c2cc(C(F)(F)F)nn2-c2ccc(S(N)(=O)=O)cc2)cc1 [Celecoxib] | 0.722 ± 0.098 | 1.0 | 
3 | CC1=C(CC(=O)O)c2cc(F)ccc2/C1=C\c1ccc(S(C)(=O)=O)cc1 [Sulindac Sulfone] | 1.6 ± 0.043 | 1.3 | 
4 | Cc1c(C)c2c(c(C)c1O)CCC(C)(COc1ccc(CC3SC(=O)NC3=O)cc1)O2 (stereo not shown) [TGZ, Troglitazone] |  |  | Earliest time at which apoptosis was observed ([1]; HCT-116, presence of serum, TGZ 5 μM): 12 h; Time point at which G1 arrest was seen ([1]; HCT-116, TGZ 5 μM): 12 h; Time at which increase in NAG-1 protein was observed [3]: 6 h; Induction of NAG-1 gene expression ([2]; HCT-116, 5 μM): 3 fold; Earliest time at which increase in NAG-1 mRNA was observed ([2]; HCT-116, 5 μM TGZ): 3 h; Induction of luciferase reporter activity (2021 bp NAG-1 promoter) [4]: 3 fold
5 | CC1=C(CC(=O)O)c2cc(F)ccc2/C1=C\c1ccc([S+](C)[O-])cc1 (stereo not shown) [Sulmdac, Sulindac] | 1.1 ± 0.173 | 1.5 | NAG-1 expression induction [2]: did not induce NAG-1 expression; Induction of luciferase reporter activity (2021 bp NAG-1 promoter) [4]: did not increase luciferase activity
6 | CN1C(C(=O)Nc2ccccn2)=C(O)c2ccccc2S1(=O)=O [Piroxicam] | 1.9 ± 0.145 | 2.5 | 
7 | CSc1ccc(/C=C2/C(C)=C(CC(=O)O)c3cc(F)ccc32)cc1 [Sulindac Sulfide] | 4.3 ± 0.737 | 4.6 | 
8 | CC(=O)Oc1ccccc1C(=O)O [Aspirin] | 3.5 ± 0.451 | 3.5 | NAG-1 expression ([5]; 5 mM): significantly increased; NAG-1 induction ([5]; 10 mM): high NAG-1 induction; NAG-1 induction [6]: high NAG-1 induction; NAG-1 induction [7]: high NAG-1 induction; NAG-1 induction [8]: high NAG-1 induction
9 | O=C([O-])c1ccccc1O.[Na+] [Sodium Salicylate] | 1.8 ± 0.252 | 3.0 | 
10 | CC(C)Cc1ccc(C(C)C(=O)O)cc1 (stereo not shown) [Ibuprofen] | 4.3 ± 0.666 | 4.5 | 
11 | CCCCC/C=C/C=C1/C(=O)C=C[C@@H]1C/C=C\CCCC(=O)O [15d-PGJ2, 15-deoxy-Δ^12,14-prostaglandin J2] |  |  | Induction of NAG-1 gene expression ([2]; HCT-116, 1 μM): 3 fold
12 | CC(=O)Nc1ccc(O)cc1 [Acetaminophen] | 0.9 ± 0.153 | 0.9 | NAG-1 expression induction [2]: did not induce NAG-1 expression; Induction of luciferase reporter activity (2021 bp NAG-1 promoter) [4]: did not increase luciferase activity
13 | O=C(O)Cc1ccccc1Nc1c(Cl)cccc1Cl [Diclofenac] | 4.0 ± 0.315 | 3.7 | 
14 | CS(=O)(=O)Nc1ccc([N+](=O)[O-])cc1OC1CCCCC1 [NS-398] | 1.029 ± 0.109 | 0.9 | 
